We go through 5 compounds from US12414960B2, “Analogues of oleuropein and oleacein and uses thereof” (Attica Sciences Ltd., priority 2020, dated 2025).

Where two headings read alike, the source gives them in different places.

A short description of test [1]: DPPH radical scavenging assay. As to conditions: NS = not statistically significant. It counts as biochemical. On the procedure:
The method of assessing the antioxidant capacity through the binding of the stable DPPH. radical was performed for the first time by Brand-Williams et al. in 1995 (Brand-William, W. et al., Lebensm Wiss Technol, 1995, 28: 25-30, “Use of a free radical method to evaluate antioxidant activity”). The method used herein is a variation of the original method and is one of the most characteristic and simple methods for the initial assessment of the antioxidant activity of antioxidant molecules or extracts rich in compounds with antioxidant properties.
The assessment of antioxidant capacity is based on the interaction of the tested molecules with the stable radical of 2,2-diphenyl-1-picrylydrazyl (DPPH). The DPPH. radical can be inactivated either by the addition of an electron or by a hydrogen atom. It is a stable organic nitrogen radical that is purple in color and absorbs at 517 nm. When a substance with antioxidant activity is added to the radical solution, then 2,2-diphenyl-1-picrylydrazyl (DPPH.) is reduced by the addition of a hydrogen atom (or electron) and converted to 2,2-diphenyl-1-picrylhydrazine (DPPH) which has a yellow color, resulting in reduction to the visual absorption (FIG. 2).
The effects of GS compounds on DPPH radical was evaluated as described previously (Spanou, C et al., Anticancer Research, 2007, 27: 3403-3410). Briefly, the assay was carried out in 1 mL of methanol containing 100 μM freshly made DPPH in methanol and the tested GS compound at different concentrations. The contents were vigorously mixed, incubated at room temperature in the dark for 20 minutes and the absorbance was read at 517 nm using a Hitachi U-1500 Spectrophotometer (San Jose, USA). In each experiment, the tested extract alone in methanol was used as blank and DPPH alone in methanol was used as control. […] The radical scavenging capacity (RSC) of the tested extracts was expressed as a percentage of DPPH elimination calculated according to the following equation: % RSC=[(absorbance of control−absorbance of GS compound)/absorbance of control]×100.
(DPPH is a stable violet radical that fades when it is reduced.)

Test [2] concerns the target T1, ATP-citrate lyase (ACLY) (Homo sapiens, UniProt P53396).
T1 construct: purchased BPS Bioscience
T1 sequence (P53396 1-1101): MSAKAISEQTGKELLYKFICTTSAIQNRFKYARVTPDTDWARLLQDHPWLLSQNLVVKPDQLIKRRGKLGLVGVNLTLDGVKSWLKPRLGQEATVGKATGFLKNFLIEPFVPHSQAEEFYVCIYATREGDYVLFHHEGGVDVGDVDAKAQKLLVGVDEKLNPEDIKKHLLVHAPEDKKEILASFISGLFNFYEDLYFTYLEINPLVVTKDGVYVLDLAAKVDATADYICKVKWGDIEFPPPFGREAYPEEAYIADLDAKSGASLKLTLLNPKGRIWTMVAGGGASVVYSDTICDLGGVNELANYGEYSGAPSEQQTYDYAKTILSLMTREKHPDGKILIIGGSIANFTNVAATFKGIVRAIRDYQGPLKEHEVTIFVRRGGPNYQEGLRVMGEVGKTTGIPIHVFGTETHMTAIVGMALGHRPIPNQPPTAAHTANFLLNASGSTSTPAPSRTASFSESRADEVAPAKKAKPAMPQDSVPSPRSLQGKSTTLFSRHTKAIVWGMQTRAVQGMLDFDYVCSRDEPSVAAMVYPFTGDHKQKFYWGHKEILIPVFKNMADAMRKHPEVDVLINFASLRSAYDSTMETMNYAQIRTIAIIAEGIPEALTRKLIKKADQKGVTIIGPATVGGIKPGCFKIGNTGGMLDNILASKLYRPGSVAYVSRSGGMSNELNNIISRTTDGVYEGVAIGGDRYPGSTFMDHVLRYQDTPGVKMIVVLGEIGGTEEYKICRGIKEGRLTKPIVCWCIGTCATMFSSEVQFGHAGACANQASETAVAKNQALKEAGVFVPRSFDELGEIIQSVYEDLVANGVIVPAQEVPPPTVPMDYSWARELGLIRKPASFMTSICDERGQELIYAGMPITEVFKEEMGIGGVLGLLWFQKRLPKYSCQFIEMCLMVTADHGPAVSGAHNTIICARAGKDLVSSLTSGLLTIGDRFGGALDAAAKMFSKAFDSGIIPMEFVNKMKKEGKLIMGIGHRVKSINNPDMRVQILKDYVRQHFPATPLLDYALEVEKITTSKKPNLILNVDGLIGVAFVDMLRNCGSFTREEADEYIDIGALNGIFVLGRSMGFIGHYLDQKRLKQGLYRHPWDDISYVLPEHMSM
In words: ACLY Assay Kit (ADP-Glo) enzymatic activity. The test is classed as biochemical. An excerpt: An ACLY Assay Kit (BPS Bioscience) was used to evaluate GS27 against ATP-citrate lyase (ACLY) enzymatic activity. The ACLY Assay Kit is designed to measure ACLY activity for screening and profiling applications using ADP-Glo™ Kinase Assay as a detection reagent (Promega #V6930). The ADP-Glo™ Kinase Assay is a luminescent ADP detection assay that provides a universal, homogeneous, high-throughput screening method to measure kinase activity by quantifying the amount of ADP produced during a kinase reaction. Multiple (1, 10, 100, 250, 500, 1000, 2000 nM) GS27 concentrations were used to evaluate GS27 IC50 activity.
A general note: ADP-Glo turns the ADP formed in a reaction into a luminescent signal.

[3] abbreviates: same assay as GS27, read-out: IC50 against ACLY enzyme.

On to `C/C=C1/[C@H](OC2OC(CO)C(O)C(O)C2O)OC=C(C(=O)O)[C@H]1CC(=O)OCCc1ccc(O)c(O)c1` (stereo in doubt) [GS6, (2S,4S,E)-4-(2-(3,4-dihydroxyphenethoxy)-2-oxoethyl)-3-ethylidene-2{[(2R,3S,4R,5R,6S)-3,4,5-trihydroxy-6-(hydroxymethyl)tetrahydro-2H-pyran-2-yl]oxy}-3,4dihydro-2H-pyran-5-carboxylic acid], for which the “DPPH Radical Scavenging Assay IC50” value in test [1] amounted to 5.9 μg extract/mL.

For `C/C=C1/[C@H](O[C@@H]2O[C@H](CO)[C@@H](O)[C@H](O)[C@H]2O)OC=C(C(=O)OC)[C@H]1CC(=O)OCCc1ccc(O)c(O)c1` [GS1, oleuropein], in test [2] (setting [3]), the IC50 – broadly, the point on the concentration scale where inhibition reaches its midpoint – was greater than 10 µM. Moreover, the “DPPH Radical Scavenging Assay IC50” value in test [1] turned out to be 13.8 μg extract/mL.

`C/C=C(/C=O)[C@@H](CC=O)CC(=O)OCCc1ccc(O)c(O)c1` [GS17, (3S,4E)-4-formyl-3-(2-oxoethyl)-4-hexenoic acid 2-(3,4-dihydroxyphenyl)ethyl ester, reference compound]: the “DPPH Radical Scavenging Assay IC50” value in test [1] came to 11.5 μg extract/mL.

On to `C/C=C(/C=O)[C@@H](CC=O)CC(=O)OCCc1ccc(O)cc1` [GS19, (3S,4E)-4-formyl-3-(2-oxoethyl)-4-hexenoic acid 2-(4-hydroxyphenyl)ethyl ester, reference compound], for which the IC50 in test [2] (setting [3]) is greater than 10 µM.

`C/C=C(/C=O)[C@@H](CC=O)CC(=O)SCCc1ccccc1` [GS27, S-phenethyl (3S,4E)-4-formyl-3-(2-oxoethyl)hex-4-enethioate]: the IC50 in test [2] (1-2000 nM tested, read-out: IC50 of ACLY activity) was determined as 0.0815 µM.
